Results from ChEMBL document CHEMBL5260810, “Inhibition of bromodomain-containing protein 9 for the prevention of epigenetically-defined drug resistance” (Bioorg Med Chem Lett, 2017).

Tests used:
NCI-H1437 = experiment: Cytotoxicity against human NCI-H1437 cells measured after 8 days; assay type: functional, cell-based; conditions: NCI-H1437, 192 h
K562 = experiment: Cytotoxicity against human K562 cells measured after 8 days; assay type: functional, cell-based; conditions: K562, 192 h
NCI-H1975 = experiment: Cytotoxicity against human NCI-H1975 cells measured after 8 days; assay type: functional, cell-based; conditions: NCI-H1975, 192 h
[1] = Cytotoxicity against human NCI-H2722 cells measured after 8 days; assay type: functional, cell-based; conditions: NCI-H2722, 192 h
Ramos = experiment: Cytotoxicity against human Ramos cells measured after 8 days; assay type: functional, cell-based; conditions: 192 h
NCI-H292 = experiment: Cytotoxicity against human NCI-H292 cells measured after 8 days; assay type: functional, cell-based; conditions: NCI-H292, 192 h
[2] = Cytotoxicity against human NCI-H322T cells measured after 8 days; assay type: functional, cell-based; conditions: 192 h
NCI-H441 = experiment: Cytotoxicity against human NCI-H441 cells measured after 8 days; assay type: functional, cell-based; conditions: NCI-H441, 192 h
CAL-51 = experiment: Cytotoxicity against human CAL-51 cells measured after 8 days; assay type: functional, cell-based; conditions: CAL-51, 192 h
HCC1806 = experiment: Cytotoxicity against human HCC1806 cells measured after 8 days; assay type: functional, cell-based; conditions: HCC1806, 192 h
IGROV-1 = experiment: Cytotoxicity against human IGROV-1 cells measured after 8 days; assay type: functional, cell-based; conditions: IGROV-1, 192 h
MDA-MB-231 = experiment: Cytotoxicity against human MDA-MB-231 cells measured after 8 days; assay type: functional, cell-based; conditions: MDA-MB-231, 192 h
SK-BR-3 = experiment: Cytotoxicity against human SK-BR-3 cells measured after 8 days; assay type: functional, cell-based; conditions: SK-BR-3, 192 h
HPAC = experiment: Cytotoxicity against human HPAC cells measured after 8 days; assay type: functional, cell-based; conditions: 192 h
YMB-1-E = experiment: Cytotoxicity against human YMB-1-E cells measured after 8 days; assay type: functional, cell-based; conditions: 192 h
NCI-H28 = experiment: Cytotoxicity against human NCI-H28 cells measured after 8 days; assay type: functional, cell-based; conditions: NCI-H28, 192 h
[3] = Cytotoxicity against human HT115 cells measured after 8 days; assay type: functional, cell-based; conditions: HT115, 192 h
LS180 = experiment: Cytotoxicity against human LS180 cells measured after 8 days; assay type: functional, cell-based; conditions: LS180, 192 h
Hs 294T = experiment: Cytotoxicity against human Hs294T cells measured after 8 days; assay type: functional, cell-based; conditions: 192 h
MEL-HO = experiment: Cytotoxicity against human MEL-HO cells measured after 8 days; assay type: functional, cell-based; conditions: 192 h
A549 = experiment: Cytotoxicity against human A549 cells measured after 8 days; assay type: functional, cell-based; conditions: A549, 192 h
Calu-3 = experiment: Cytotoxicity against human Calu-3 cells measured after 8 days; assay type: functional, cell-based; conditions: Calu-3, 192 h
HCC4006 = experiment: Cytotoxicity against human HCC4006 cells measured after 8 days; assay type: functional, cell-based; conditions: HCC4006, 192 h
HCC4017 = experiment: Cytotoxicity against human HCC4017 cells measured after 8 days; assay type: functional, cell-based; conditions: HCC4017, 192 h
HOP-92 = experiment: Cytotoxicity against human HOP-92 cells measured after 8 days; assay type: functional, cell-based; conditions: HOP-92, 192 h
[4] = target: Bromodomain-containing protein 2 (Homo sapiens, UniProt P25440); experiment: Binding affinity to human partial length BRD2 bromodomain 1 long isoform (K71 to N194 residues) expressed in bacterial expression system by BROMOscan assay
Sequence of Bromodomain-containing protein 2 (P25440 whole entry, the tested form may be a part, canonical isoform): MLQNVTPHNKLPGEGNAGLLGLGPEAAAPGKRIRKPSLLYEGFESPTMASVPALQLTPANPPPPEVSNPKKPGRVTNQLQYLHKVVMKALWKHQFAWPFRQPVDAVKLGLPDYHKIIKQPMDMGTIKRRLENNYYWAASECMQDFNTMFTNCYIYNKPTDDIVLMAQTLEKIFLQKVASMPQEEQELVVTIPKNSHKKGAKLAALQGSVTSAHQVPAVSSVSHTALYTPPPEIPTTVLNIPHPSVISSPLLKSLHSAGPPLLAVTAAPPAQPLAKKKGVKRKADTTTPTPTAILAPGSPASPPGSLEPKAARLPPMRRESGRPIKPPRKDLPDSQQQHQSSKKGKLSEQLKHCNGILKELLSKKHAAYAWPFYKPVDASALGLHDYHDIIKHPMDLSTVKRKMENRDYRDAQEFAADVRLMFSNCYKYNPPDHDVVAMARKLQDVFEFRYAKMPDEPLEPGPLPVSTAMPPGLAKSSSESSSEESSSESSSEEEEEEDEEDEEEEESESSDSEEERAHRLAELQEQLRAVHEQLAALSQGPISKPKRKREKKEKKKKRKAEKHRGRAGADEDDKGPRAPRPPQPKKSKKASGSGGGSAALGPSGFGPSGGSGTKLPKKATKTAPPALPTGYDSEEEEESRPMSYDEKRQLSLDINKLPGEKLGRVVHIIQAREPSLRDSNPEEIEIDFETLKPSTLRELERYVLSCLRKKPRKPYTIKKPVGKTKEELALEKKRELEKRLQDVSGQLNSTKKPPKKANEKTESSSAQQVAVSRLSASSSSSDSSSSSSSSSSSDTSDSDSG

[5] = target: Bromodomain testis-specific protein (Homo sapiens, UniProt Q58F21); experiment: Binding affinity to human partial length BRDT bromodomain 1 (N21 to E137 residues) expressed in bacterial expression system by BROMOscan assay
[6] = target: T1, E3 ubiquitin-protein ligase TRIM33 (Homo sapiens, UniProt Q9UPN9); experiment: Binding affinity to human partial length TRIM33 (D882 to A1087 residues) expressed in bacterial expression system by BROMOscan assay
T1 sequence (Q9UPN9 whole entry): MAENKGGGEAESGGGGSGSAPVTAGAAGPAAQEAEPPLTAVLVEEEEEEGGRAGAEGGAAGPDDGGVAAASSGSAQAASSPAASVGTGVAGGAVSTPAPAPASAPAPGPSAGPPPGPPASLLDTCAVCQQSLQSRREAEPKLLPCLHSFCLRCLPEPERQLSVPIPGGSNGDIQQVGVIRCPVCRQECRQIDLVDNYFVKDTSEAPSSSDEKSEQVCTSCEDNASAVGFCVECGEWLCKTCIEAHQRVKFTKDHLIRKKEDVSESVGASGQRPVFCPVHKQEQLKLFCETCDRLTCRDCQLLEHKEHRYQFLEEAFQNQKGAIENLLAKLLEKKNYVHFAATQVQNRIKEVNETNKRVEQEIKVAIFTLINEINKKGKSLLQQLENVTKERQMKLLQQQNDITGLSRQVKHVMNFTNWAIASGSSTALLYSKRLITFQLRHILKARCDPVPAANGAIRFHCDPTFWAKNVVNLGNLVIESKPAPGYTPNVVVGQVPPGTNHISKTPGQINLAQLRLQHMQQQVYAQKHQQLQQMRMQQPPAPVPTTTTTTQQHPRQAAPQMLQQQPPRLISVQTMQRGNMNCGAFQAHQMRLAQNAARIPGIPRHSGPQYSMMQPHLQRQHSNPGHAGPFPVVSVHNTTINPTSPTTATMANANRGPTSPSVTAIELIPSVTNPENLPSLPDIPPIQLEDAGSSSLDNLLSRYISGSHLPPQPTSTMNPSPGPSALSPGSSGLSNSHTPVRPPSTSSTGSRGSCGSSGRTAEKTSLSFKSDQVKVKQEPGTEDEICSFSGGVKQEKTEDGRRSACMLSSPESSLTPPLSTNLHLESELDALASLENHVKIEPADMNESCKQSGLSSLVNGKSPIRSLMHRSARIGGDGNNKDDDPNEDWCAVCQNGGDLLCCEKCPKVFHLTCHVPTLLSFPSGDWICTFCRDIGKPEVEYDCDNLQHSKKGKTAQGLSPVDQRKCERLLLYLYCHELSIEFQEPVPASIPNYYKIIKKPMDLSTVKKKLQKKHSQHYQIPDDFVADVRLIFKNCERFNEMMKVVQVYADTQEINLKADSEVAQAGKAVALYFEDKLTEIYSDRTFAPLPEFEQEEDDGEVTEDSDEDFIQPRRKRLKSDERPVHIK

[7] = target: Bromodomain and WD repeat-containing protein 1 (Homo sapiens, UniProt Q9NSI6); experiment: Binding affinity to human partial length WDR9 bromodomain 2 (A1310 to E1430 residues) expressed in bacterial expression system by BROMOscan assay
Sequence of Bromodomain and WD repeat-containing protein 1 (Q9NSI6 whole entry, the tested form may be a part): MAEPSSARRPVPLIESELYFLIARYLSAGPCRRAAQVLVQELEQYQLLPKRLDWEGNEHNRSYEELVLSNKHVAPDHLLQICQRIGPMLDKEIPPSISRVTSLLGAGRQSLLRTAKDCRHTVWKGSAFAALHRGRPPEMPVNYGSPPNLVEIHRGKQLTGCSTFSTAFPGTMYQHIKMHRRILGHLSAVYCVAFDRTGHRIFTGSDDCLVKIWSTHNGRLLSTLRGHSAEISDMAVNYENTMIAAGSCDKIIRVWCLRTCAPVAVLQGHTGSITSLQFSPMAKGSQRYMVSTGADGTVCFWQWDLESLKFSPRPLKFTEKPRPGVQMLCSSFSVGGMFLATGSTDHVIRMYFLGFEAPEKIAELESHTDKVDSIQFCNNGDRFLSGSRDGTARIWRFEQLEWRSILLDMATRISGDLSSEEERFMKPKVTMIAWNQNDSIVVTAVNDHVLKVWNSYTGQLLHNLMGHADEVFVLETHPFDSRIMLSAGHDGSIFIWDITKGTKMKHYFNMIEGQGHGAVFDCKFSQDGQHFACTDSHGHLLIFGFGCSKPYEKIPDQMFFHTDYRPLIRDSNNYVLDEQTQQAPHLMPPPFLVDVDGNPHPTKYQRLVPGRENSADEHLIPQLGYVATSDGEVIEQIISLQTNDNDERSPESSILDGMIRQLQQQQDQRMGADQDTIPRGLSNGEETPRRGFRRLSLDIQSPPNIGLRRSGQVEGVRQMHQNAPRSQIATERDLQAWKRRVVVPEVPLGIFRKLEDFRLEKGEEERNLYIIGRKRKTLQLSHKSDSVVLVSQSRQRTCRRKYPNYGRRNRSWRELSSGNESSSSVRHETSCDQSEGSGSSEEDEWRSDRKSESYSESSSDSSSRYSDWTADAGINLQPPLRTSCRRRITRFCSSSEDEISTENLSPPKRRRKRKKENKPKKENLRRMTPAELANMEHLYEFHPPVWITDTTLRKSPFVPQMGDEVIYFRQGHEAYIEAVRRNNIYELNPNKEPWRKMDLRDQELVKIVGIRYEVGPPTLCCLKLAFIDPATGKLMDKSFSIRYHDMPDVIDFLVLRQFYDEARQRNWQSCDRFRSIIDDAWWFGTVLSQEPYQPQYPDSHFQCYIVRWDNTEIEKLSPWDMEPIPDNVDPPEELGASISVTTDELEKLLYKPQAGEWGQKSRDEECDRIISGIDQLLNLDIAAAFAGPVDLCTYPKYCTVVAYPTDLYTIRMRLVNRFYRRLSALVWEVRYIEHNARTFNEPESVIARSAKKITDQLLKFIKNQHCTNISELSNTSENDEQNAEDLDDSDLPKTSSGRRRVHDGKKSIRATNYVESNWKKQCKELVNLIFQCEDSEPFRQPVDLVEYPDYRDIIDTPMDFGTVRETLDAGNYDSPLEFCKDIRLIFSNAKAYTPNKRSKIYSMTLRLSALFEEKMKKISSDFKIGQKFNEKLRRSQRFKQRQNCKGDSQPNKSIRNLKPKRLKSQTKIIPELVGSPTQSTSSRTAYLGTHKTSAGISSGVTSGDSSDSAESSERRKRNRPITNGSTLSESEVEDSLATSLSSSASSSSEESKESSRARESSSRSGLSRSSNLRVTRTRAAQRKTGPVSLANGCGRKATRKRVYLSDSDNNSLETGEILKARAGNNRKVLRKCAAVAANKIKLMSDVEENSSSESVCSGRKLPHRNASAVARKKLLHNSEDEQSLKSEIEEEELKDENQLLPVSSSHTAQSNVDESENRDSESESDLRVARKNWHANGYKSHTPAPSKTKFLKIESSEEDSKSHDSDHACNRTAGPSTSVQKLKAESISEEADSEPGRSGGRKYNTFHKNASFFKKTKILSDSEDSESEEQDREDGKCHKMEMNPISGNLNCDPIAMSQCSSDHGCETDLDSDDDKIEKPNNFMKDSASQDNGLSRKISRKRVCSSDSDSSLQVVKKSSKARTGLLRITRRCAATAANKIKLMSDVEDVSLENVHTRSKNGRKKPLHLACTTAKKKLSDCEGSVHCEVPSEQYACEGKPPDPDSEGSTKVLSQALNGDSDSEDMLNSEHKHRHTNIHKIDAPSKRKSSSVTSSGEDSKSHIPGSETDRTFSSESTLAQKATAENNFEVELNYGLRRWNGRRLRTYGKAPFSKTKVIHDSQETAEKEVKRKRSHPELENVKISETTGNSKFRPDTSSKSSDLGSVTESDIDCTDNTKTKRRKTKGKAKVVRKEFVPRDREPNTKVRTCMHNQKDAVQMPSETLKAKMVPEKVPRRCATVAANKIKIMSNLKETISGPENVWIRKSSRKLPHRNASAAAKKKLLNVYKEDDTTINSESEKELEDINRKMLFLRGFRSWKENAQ

[8] = target: Dual specificity protein kinase CLK2 (Homo sapiens) (UniProt P49760); experiment: Inhibition of CLK2 (unknown origin) at 1 uM relative to control
Sequence of Dual specificity protein kinase CLK2 (Homo sapiens) (P49760 whole entry, looked up): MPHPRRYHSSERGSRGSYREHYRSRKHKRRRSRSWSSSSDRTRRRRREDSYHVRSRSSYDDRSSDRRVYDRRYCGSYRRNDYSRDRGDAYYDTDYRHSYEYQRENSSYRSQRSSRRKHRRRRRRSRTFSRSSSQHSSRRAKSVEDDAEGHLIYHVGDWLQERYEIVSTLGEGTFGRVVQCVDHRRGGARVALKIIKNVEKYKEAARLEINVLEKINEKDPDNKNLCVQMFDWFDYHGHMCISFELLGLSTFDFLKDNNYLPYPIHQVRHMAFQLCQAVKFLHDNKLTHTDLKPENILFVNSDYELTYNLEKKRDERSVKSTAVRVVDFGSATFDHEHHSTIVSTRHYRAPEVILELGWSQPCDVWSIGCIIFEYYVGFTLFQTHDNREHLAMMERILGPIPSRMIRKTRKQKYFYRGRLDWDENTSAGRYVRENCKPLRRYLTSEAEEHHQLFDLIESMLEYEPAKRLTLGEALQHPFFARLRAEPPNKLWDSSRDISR

[9] = target: Mitogen-activated protein kinase kinase kinase kinase 4 (Homo sapiens) (UniProt O95819); experiment: Inhibition of MAP4K4 (unknown origin) at 1 uM relative to control
[10] = target: Beta-1 adrenergic receptor (Homo sapiens) (UniProt P08588); experiment: Displacement of [3H](-)CGP 12177 from human beta1 adrenoceptor at 10 uM after 60 mins by scintillation counting analysis relative to control
Sequence of Beta-1 adrenergic receptor (Homo sapiens) (P08588 whole entry, looked up): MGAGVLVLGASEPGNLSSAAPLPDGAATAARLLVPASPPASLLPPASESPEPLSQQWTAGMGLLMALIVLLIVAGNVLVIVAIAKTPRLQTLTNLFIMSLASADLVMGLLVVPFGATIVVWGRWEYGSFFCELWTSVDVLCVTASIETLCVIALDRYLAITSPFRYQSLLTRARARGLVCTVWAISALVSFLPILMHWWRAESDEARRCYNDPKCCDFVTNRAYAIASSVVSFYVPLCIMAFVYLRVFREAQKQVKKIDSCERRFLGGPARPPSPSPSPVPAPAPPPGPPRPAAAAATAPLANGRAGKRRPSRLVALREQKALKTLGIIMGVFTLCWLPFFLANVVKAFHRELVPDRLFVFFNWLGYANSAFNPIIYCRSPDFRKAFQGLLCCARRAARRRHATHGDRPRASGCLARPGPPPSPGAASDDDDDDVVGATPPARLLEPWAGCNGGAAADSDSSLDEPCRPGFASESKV

[11] = target: Mu-type opioid receptor (Homo sapiens) (UniProt P35372); experiment: Displacement of [3H]DAMGO from human recombinant mu receptor at 10 uM after 120 mins by scintillation counting analysis relative to control
Sequence of Mu-type opioid receptor (Homo sapiens) (P35372 whole entry): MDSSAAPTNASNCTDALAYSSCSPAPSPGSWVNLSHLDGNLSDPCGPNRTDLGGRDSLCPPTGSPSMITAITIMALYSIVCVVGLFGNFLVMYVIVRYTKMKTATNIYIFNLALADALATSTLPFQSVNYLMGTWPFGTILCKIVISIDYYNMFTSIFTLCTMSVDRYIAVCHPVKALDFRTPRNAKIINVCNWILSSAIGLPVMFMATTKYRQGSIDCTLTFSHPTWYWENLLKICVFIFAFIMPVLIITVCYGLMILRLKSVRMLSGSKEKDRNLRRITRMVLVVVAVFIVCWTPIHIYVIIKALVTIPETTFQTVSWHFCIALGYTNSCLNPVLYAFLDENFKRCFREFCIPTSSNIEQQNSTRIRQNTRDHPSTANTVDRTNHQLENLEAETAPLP

C/C=C/Cn1cc(-c2ccc(C(C)(C)O)cc2OC)c2cc[nH]c2c1=O
IC50 (NCI-H1437): 20 µM | IC50 (K562): 20 µM | IC50 (NCI-H1975): 20 µM | IC50 [1]: 20 µM | IC50 (Ramos): 20 µM | IC50 (NCI-H292): 20 µM | IC50 [2]: 20 µM | IC50 (NCI-H441): 20 µM | IC50 (CAL-51): 20 µM | IC50 (HCC1806): 20 µM | IC50 (IGROV-1): 20 µM | IC50 (MDA-MB-231): 20 µM | IC50 (SK-BR-3): 20 µM | IC50 (HPAC): 20 µM | IC50 (YMB-1-E): 20 µM | IC50 (NCI-H28): 20 µM | IC50 [3]: 20 µM | IC50 (LS180): 20 µM | IC50 (Hs 294T): 20 µM | IC50 (MEL-HO): 16.5 µM | IC50 (A549): 20 µM | IC50 (Calu-3): 20 µM | IC50 (HCC4006): 20 µM | IC50 (HCC4017): 20 µM | IC50 (HOP-92): 20 µM | Kd [4]: 2.7 µM | Kd [5]: 0.83 µM | Kd [6]: > 10 µM | Kd [7]: > 10 µM | inhibition [8]: 8% | inhibition [9]: 10.5% | Activity [10]: 11% | Activity [11]: 10%

C/C=C/Cn1cc(-c2cc(OC)c(C(C)(C)O)cc2OC)c2cc(C)[nH]c2c1=O
Kd [4]: > 10 µM | Kd [5]: 2.1 µM | Kd [6]: > 10 µM | Kd [7]: > 10 µM

C/C=C/Cn1cc(-c2ccc(C(=O)N3CCOCC3)cc2)c2cc[nH]c2c1=O
IC50 (NCI-H1437): 20 µM | IC50 (K562): 20 µM | IC50 (NCI-H1975): 20 µM | IC50 [1]: 20 µM | IC50 (Ramos): 20 µM | IC50 (NCI-H292): 20 µM | IC50 [2]: 20 µM | IC50 (NCI-H441): 20 µM | IC50 (CAL-51): 20 µM | IC50 (HCC1806): 20 µM | IC50 (IGROV-1): 20 µM | IC50 (MDA-MB-231): 20 µM | IC50 (SK-BR-3): 20 µM | IC50 (HPAC): 20 µM | IC50 (YMB-1-E): 20 µM | IC50 (NCI-H28): 20 µM | IC50 [3]: 20 µM | IC50 (LS180): 20 µM | IC50 (Hs 294T): 20 µM | IC50 (MEL-HO): 20 µM | IC50 (A549): 20 µM | IC50 (Calu-3): 20 µM | IC50 (HCC4006): 20 µM | IC50 (HCC4017): 20 µM | IC50 (HOP-92): 20 µM | Kd [4]: 4 µM | Kd [5]: 2.5 µM | Kd [6]: > 10 µM | Kd [7]: 27 µM | inhibition [8]: 2% | inhibition [9]: 4.8% | Activity [10]: 4% | Activity [11]: 5%

C/C=C/Cn1cc(-c2cc(OC)c(C(=O)N3CCOCC3)cc2OC)c2cc(C)[nH]c2c1=O
IC50 (NCI-H1437): 2 µM | IC50 (K562): 2 µM | IC50 (NCI-H1975): 2 µM | IC50 [1]: 2 µM | IC50 (Ramos): 2 µM | IC50 (NCI-H292): 2 µM | IC50 [2]: 2 µM | IC50 (NCI-H441): 2 µM | IC50 (CAL-51): 2 µM | IC50 (HCC1806): 2 µM | IC50 (IGROV-1): 2 µM | IC50 (MDA-MB-231): 2 µM | IC50 (SK-BR-3): 2 µM | IC50 (HPAC): 2 µM | IC50 (YMB-1-E): 2 µM | IC50 (NCI-H28): 2 µM | IC50 [3]: 2 µM | IC50 (LS180): 2 µM | IC50 (Hs 294T): 2 µM | IC50 (MEL-HO): 2 µM | IC50 (A549): 2 µM | IC50 (Calu-3): 2 µM | IC50 (HCC4006): 2 µM | IC50 (HCC4017): 2 µM | IC50 (HOP-92): 2 µM | Kd [4]: > 10 µM | Kd [5]: > 10 µM | Kd [6]: > 5 µM | Kd [7]: > 5 µM | inhibition [8]: 7.5% | inhibition [9]: 0% | Activity [10]: 12% | Activity [11]: 9%
